Converted amounts (≈) assume the structure as drawn. Counter-ions that a name gives are not always drawn. Like-named read-outs stand apart in the source and are kept apart here.
Assays:
Assay type in all cases: cell-based
[1] = test system: P. aeruginosa NB52019 (wild-type PAO1); assay: MIC, broth microdilution (CLSI); details: Pseudomonas aeruginosa, read-out: Antibacterial activity (MIC) NB52019
[2] = test system: S. aureus ATCC 29213 (NB01001); assay: MIC, broth microdilution (CLSI); details: Staphylococcus aureus, ATCC29213; S. aureus ATCC 29213; 35° C., 20 hours; read-out: Antibacterial activity (MIC) NB01001
[3] = test system: E. coli NB27177 (efflux deficient CGSC 11430, ΔtolC732::kan); assay: microbe, parasite or virus in culture; details: Escherichia coli, 20 h, read-out: Antibacterial activity (MIC) NB27177
[4] = test system: E. coli ATCC 25922 (NB27001); assay: MIC, broth microdilution (CLSI); details: Escherichia coli, ATCC25922; E. coli ATCC 25922; 35° C., 20 hours; read-out: Antibacterial activity (MIC) NB27001
[5] = test system: P. aeruginosa NB52023 (efflux deficient K1542, ΔmexX ΔmexB); assay: microbe, parasite or virus in culture; details: Pseudomonas aeruginosa, 20 h, read-out: Antibacterial activity (MIC) NB52023
[6] = test system: P. aeruginosa NB52023-CDK0006 (gyrA T83I, parC S87L); assay: microbe, parasite or virus in culture; details: Pseudomonas aeruginosa, 20 h, read-out: Antibacterial activity (MIC) NB52023-CDK0006
[7] = test system: S. aureus NB01006-AVR005 (gyrA S84L, grlA S80F, grlB E471K); assay: microbe, parasite or virus in culture; details: Staphylococcus aureus, 20 h, read-out: Antibacterial activity (MIC) NB01006-AVR005
[8] = P. aeruginosa wild-type PAO1, 35° C., 20 hours

| Structure (SMILES) | MIC ([1]; PAO1, 20 h) [µg/mL] | MIC [2] [µg/mL] | MIC [3] [µg/mL] | MIC [4] [µg/mL] | MIC [5] [µg/mL] | MIC [6] [µg/mL] | MIC [7] [µg/mL] | MIC [1, 8] [µg/mL] |
| --- | --- | --- | --- | --- | --- | --- | --- | --- |
| COC(=O)C#Cc1cc(=O)n(C2CC2)c2c(C)c(N3CC[C@@H]([C@H](C)N)C3)c(F)cc12 [Example 26, Methyl 3-(7-((R)-3-((S)-1-aminoethyl)pyrrolidin-1-yl)-1-cyclopropyl-6-fluoro-8-methyl-2-oxo-1,2-dihydroquinolin-4-yl)propiolate] | > 32 | 1 (≈ 2.43 µM) | 1 (≈ 2.43 µM) | 32 (≈ 77.8 µM) | 16 (≈ 38.9 µM) | 32 (≈ 77.8 µM) | 0.25 (≈ 0.608 µM) | – |
| Cc1c(N2CC[C@@H]([C@H](C)N)C2)c(F)cc2c(OCCCC(=O)O)cc(=O)n(C3CC3)c12 [Example 61, 4-((7-((R)-3-((S)-1-aminoethyl)pyrrolidin-1-yl)-1-cyclopropyl-6-fluoro-8-methyl-2-oxo-1,2-dihydroquinolin-4-yl)oxy)butanoic acid] | 32 (≈ 74.2 µM) | > 32 | > 32 | 32 (≈ 74.2 µM) | > 32 | > 32 | > 32 | – |
| Cc1c(N2CC[C@@H]([C@H](C)N)C2)ccc2c(O)cc(=O)n(C3CC3)c12 [Example 72, 7-((R)-3-((S)-1-aminoethyl)pyrrolidin-1-yl)-1-cyclopropyl-4-hydroxy-8-methylquinolin-2(1H)-one TFA salt] | 32 | 16 | 16 | 32 | > 32 | > 32 | 8 | – |
| CC(=O)NCCOc1cc(=O)n(C2CC2)c2c(C)c(N3CC[C@@H]([C@H](C)N)C3)c(F)cc12 [Example 54, N-(2-((7-((R)-3-((S)-1-aminoethyl)pyrrolidin-1-yl)-1-cyclopropyl-6-fluoro-8-methyl-2-oxo-1,2-dihydroquinolin-4-yl)oxy)ethyl)acetamide] | 32 (≈ 74.3 µM) | 8 (≈ 18.6 µM) | 4 (≈ 9.29 µM) | 32 (≈ 74.3 µM) | > 32 | > 32 | 4 (≈ 9.29 µM) | – |
| Cc1c(-c2ccc(N)nc2)ccc2cc(O)c(=O)n(C3CC3)c12 [Example 77, 7-(6-Aminopyridin-3-yl)-1-cyclopropyl-3-hydroxy-8-methylquinolin-2(1H)-one TFA salt] | > 32 | 4 | 0.5 | 32 | > 32 | > 32 | 32 | – |
| Cc1c(N2CCC(F)(CN)C2)c(F)cc2cc(CN)c(=O)n(C3CC3)c12 (centres unmarked) [Example 93, 3-(aminomethyl)-7-(3-(aminomethyl)-3-fluoropyrrolidin-1-yl)-1-cyclopropyl-6-fluoro-8-methylquinolin-2(1H)-one formic acid salt] | 8 | 2 | 1 | 8 | 4 | 8 | 16 | – |
| Cc1c(N2CC[C@@H]([C@H](C)N)C2)c(F)cc2c(-c3noc(=O)[nH]3)cc(=O)n(C3CC3)c12 [Example 38, 3-(7-((R)-3-((S)-1-aminoethyl)pyrrolidin-1-yl)-1-cyclopropyl-6-fluoro-8-methyl-2-oxo-1,2-dihydroquinolin-4-yl)-1,2,4-oxadiazol-5(4H)-one] | > 32 | 4 (≈ 9.67 µM) | 2 (≈ 4.84 µM) | 32 (≈ 77.4 µM) | 32 (≈ 77.4 µM) | > 32 | 4 (≈ 9.67 µM) | – |
| Cc1c(N2CC[C@@H]([C@H](C)N)C2)c(F)cc2c(Cl)cc(=O)n(C3CC3)c12 [Example 44, 7-((R)-3-((S)-1-aminoethyl)pyrrolidin-1-yl)-4-chloro-1-cyclopropyl-6-fluoro-8-methylquinolin-2(1H)-one] | 8 (≈ 22 µM) | 0.06 (≈ 0.165 µM) | 0.03 (≈ 0.0824 µM) | 2 (≈ 5.5 µM) | 4 (≈ 11 µM) | 8 (≈ 22 µM) | 0.03 (≈ 0.0824 µM) | – |
| COc1c(C)c(=O)n(C2CC2)c2c(C)c(-c3ccc(N)nc3)ccc12 [Example 70, 7-(6-aminopyridin-3-yl)-1-cyclopropyl-4-methoxy-3,8-dimethylquinolin-2(1H)-one] | 32 (≈ 95.4 µM) | 16 (≈ 47.7 µM) | 2 (≈ 5.96 µM) | 32 (≈ 95.4 µM) | > 32 | > 32 | 4 (≈ 11.9 µM) | – |
| Cc1c(N2CC[C@@H]([C@H](C)N)C2)c(F)cc2c(OCCCC#N)cc(=O)n(C3CC3)c12 [Example 57, 4-((7-((R)-3-((S)-1-aminoethyl)pyrrolidin-1-yl)-1-cyclopropyl-6-fluoro-8-methyl-2-oxo-1,2-dihydroquinolin-4-yl)oxy)butanenitrile] | > 32 | 0.25 (≈ 0.606 µM) | 0.25 (≈ 0.606 µM) | 32 (≈ 77.6 µM) | 16 (≈ 38.8 µM) | > 32 | 0.25 (≈ 0.606 µM) | – |
| Cc1c(N2CC[C@@H]([C@H](C)N)C2)c(F)cc2c(OCCNC(=N)N)cc(=O)n(C3CC3)c12 [Example 53, 1-(2-((7-((R)-3-((S)-1-aminoethyl)pyrrolidin-1-yl)-1-cyclopropyl-6-fluoro-8-methyl-2-oxo-1,2-dihydroquinolin-4-yl)oxy)ethyl)guanidine] | 16 (≈ 37.2 µM) | 0.5 (≈ 1.16 µM) | 0.125 (≈ 0.29 µM) | 4 (≈ 9.29 µM) | 4 (≈ 9.29 µM) | 4 (≈ 9.29 µM) | 0.5 (≈ 1.16 µM) | – |
| Cc1c(N2CCC(F)(CN)C2)c(F)c(F)c2c(CN)cc(=O)n(C3CC3)c12 (centres unmarked) [Example 83, 4-(aminomethyl)-7-(3-(aminomethyl)-3-fluoropyrrolidin-1-yl)-1-cyclopropyl-5,6-difluoro-8-methylquinolin-2(1H)-one TFA salt] | 2 | 0.125 | < 0.03 | 0.125 | 0.25 | 0.5 | 0.125 | – |
| Cc1c(N2CC[C@@H]([C@H](C)N)C2)c(F)cc2c(-c3cn[nH]c3)cc(=O)n(C3CC3)c12 [Example 18, 7-((R)-3-((S)-1-aminoethyl)pyrrolidin-1-yl)-1-cyclopropyl-6-fluoro-8-methyl-4-(1H-pyrazol-4-yl)quinolin-2(1H)-one] | 32 (≈ 80.9 µM) | 0.5 (≈ 1.26 µM) | 0.125 (≈ 0.316 µM) | 32 (≈ 80.9 µM) | 8 (≈ 20.2 µM) | 16 (≈ 40.5 µM) | 0.25 (≈ 0.632 µM) | – |
| Cc1c(N2CCNCC2)c(F)cc2c(C#N)cc(=O)n(C3CC3)c12 [Example 32, 1-cyclopropyl-6-fluoro-8-methyl-2-oxo-7-(piperazin-1-yl)-1,2-dihydroquinoline-4-carbonitrile] | – | 4 (≈ 12.3 µM) | 0.125 (≈ 0.383 µM) | 4 (≈ 12.3 µM) | 16 (≈ 49 µM) | 32 (≈ 98 µM) | 2 (≈ 6.13 µM) | 32 (≈ 98 µM) |
| Cc1c(N2CC[C@@H]([C@H](C)N)C2)c(F)cc2c(-c3ccccc3)cc(=O)n(C3CC3)c12 [Example 19, 7-((R)-3-((S)-1-aminoethyl)pyrrolidin-1-yl)-1-cyclopropyl-6-fluoro-8-methyl-4-phenylquinolin-2(1H)-one] | – | 0.5 (≈ 1.23 µM) | 0.5 (≈ 1.23 µM) | 32 (≈ 78.9 µM) | > 32 | > 32 | 0.5 (≈ 1.23 µM) | > 32 |
| COc1cc2ccc(N3CC[C@@H]([C@H](C)N)C3)c(C)c2n(C2CC2)c1=O [Example 80, 7-((R)-3-((S)-1-aminoethyl)pyrrolidin-1-yl)-1-cyclopropyl-3-methoxy-8-methylquinolin-2(1H)-one TFA salt] | > 32 | 1 | 2 | 32 | > 32 | > 32 | 2 | – |
| COc1cc2cc(F)c(N3CC[C@@H]([C@H](C)N)C3)c(C)c2n(C2CC2)c1=O [Example 6, 7-((R)-3-((S)-1-aminoethyl)pyrrolidin-1-yl)-1-cyclopropyl-6-fluoro-3-methoxy-8-methylquinolin-2(1H)-one] | 32 (≈ 89 µM) | 0.125 (≈ 0.348 µM) | 0.125 (≈ 0.348 µM) | 2 (≈ 5.56 µM) | 8 (≈ 22.3 µM) | 32 (≈ 89 µM) | 0.5 (≈ 1.39 µM) | – |
| N#Cc1c(N2CC[C@H](N)C2)c(F)cc2c(CN)cc(=O)n(C3CC3)c12 [Example 114, (S)-4-(aminomethyl)-7-(3-aminopyrrolidin-1-yl)-1-cyclopropyl-6-fluoro-2-oxo-1,2-dihydroquinoline-8-carbonitrile] | 16 (≈ 46.9 µM) | 16 (≈ 46.9 µM) | 0.5 (≈ 1.46 µM) | 2 (≈ 5.86 µM) | 2 (≈ 5.86 µM) | 4 (≈ 11.7 µM) | 32 (≈ 93.7 µM) | – |
| COc1cc2cc(F)c(-c3ccc(N)nc3)c(C)c2n(C2CC2)c1=O [Example 7, 7-(6-aminopyridin-3-yl)-1-cyclopropyl-6-fluoro-3-methoxy-8-methylquinolin-2(1H)-one] | > 32 | 2 (≈ 5.89 µM) | 0.25 (≈ 0.737 µM) | 32 (≈ 94.3 µM) | > 32 | > 32 | 4 (≈ 11.8 µM) | – |
| Cc1c(N2CCC(CN)C2)c(F)c(CN)c2ccc(=O)n(C3CC3)c12.O=C(O)C(F)(F)F (centres unmarked) [Example 100, 5-(aminomethyl)-7-(3-(aminomethyl)pyrrolidin-1-yl)-1-cyclopropyl-6-fluoro-8-methylquinolin-2(1H)-one TFA salt] | – | 8 | 2 | 32 | 8 | 16 | 4 | > 32 |

From US10160726B2, “Quinolone derivatives as antibacterials” (priority 2014, dated 2018)
